The values below come from PubChem BioAssay (NCI).

“And” between values parts separate entries of the source, which are not always exact repeats. Equal values may be shown once.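 Cultured in 96-well plates, cells were exposed to test compound for 48 hours across five concentrations. The concentration for 50% growth inhibition is given as GI50. At the TGI there is no net growth.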

Test systems include A549 NSCLC; EKVX NSCLC; HOP-92 NSCLC; KM12 colon; MOLT-4 leukemia; NCI-H226 lung; NCI-H23 lung; NCI-H522 lung; SF-268 CNS; SK-OV-3 ovarian.
Holding throughout (assay): NCI-60 cell line screen, 48 h

As to `O=c1c2cccc(F)c2sc2c(N3CCNCC3)nc3ccccc3c12`, the GI50 with A549 NSCLC is 0.89 µM; in the experiment on EKVX NSCLC, 1.59 µM; in the experiment with HOP-92 NSCLC, 1.11 µM; in the experiment with KM12 colon, 1.65 µM; in the experiment with MOLT-4 leukemia, 0.449 µM; in the experiment on NCI-H226 lung, 1.65 µM. For the same compound, the GI50 is 1.57 µM with NCI-H23 lung, 1.45 µM in the experiment with NCI-H522 lung, 1.55 µM in the experiment with SF-268 CNS and 1.64 µM in the experiment with SK-OV-3 ovarian. The TGI was 2.71 µM with A549 NSCLC; 2.99 µM in the experiment with EKVX NSCLC; 2.6 µM in the experiment with HOP-92 NSCLC; 3.17 µM in the experiment with KM12 colon; 1.71 µM in the experiment with MOLT-4 leukemia; 3.4 µM in the experiment on NCI-H226 lung. Further, the TGI in the experiment on NCI-H23 lung worked out at 3.1 µM; in the experiment with NCI-H522 lung it was 3.18 µM; in the experiment on SF-268 CNS, 3.26 µM; in the experiment on SK-OV-3 ovarian, 3.41 µM.

For `CC1(C)CCCC(C)(C2CCC3(C)C2C(O)CC2C4(C)CCC(O)C(C)(C)C4C(O)CC23C)O1` (stereo not drawn), the TGI stood at 24.4 µM in the experiment with A549 NSCLC; 32.5 µM with EKVX NSCLC; 30.6 µM in the experiment on HOP-92 NSCLC; 24.7 µM in the experiment on KM12 colon; 16.3 µM in the experiment on MOLT-4 leukemia; 40.1 µM with NCI-H226 lung. Also, the TGI in the experiment with NCI-H23 lung was 25.6 µM; in the experiment on NCI-H522 lung, 29.8 µM; with SF-268 CNS, 31.9 µM; with SK-OV-3 ovarian it was 32 µM.

Regarding `CC1(c2cccc(N)c2)C2C(=O)NC(=O)C1C(=O)NC2=O` (stereo not drawn), the TGI in the experiment with A549 NSCLC was more than 100 µM; with EKVX NSCLC, more than 100 µM; with HOP-92 NSCLC, 57.3 µM; in the experiment on KM12 colon it was more than 100 µM; in the experiment on MOLT-4 leukemia, 47.6 µM; in the experiment with NCI-H226 lung it was 83.8 µM. In addition, the TGI is 48.5 µM with NCI-H23 lung, 46.3 µM in the experiment on NCI-H522 lung, more than 100 µM in the experiment on SF-268 CNS and 91.5 µM in the experiment with SK-OV-3 ovarian.

As to `Cc1[nH]c(C(=O)Nc2ccccc2OC2CCNCC2)c(Cl)c1Cl`, the GI50 in the experiment with A549 NSCLC was 1.22 µM; with EKVX NSCLC, 1.09 µM; in the experiment with HOP-92 NSCLC, 0.702 µM; in the experiment on KM12 colon it was 1.28 µM; in the experiment on MOLT-4 leukemia it was 1.31 µM; in the experiment with NCI-H226 lung it was 0.966 µM. Moreover, the GI50 in the experiment with NCI-H23 lung was 1.52 µM; with NCI-H522 lung it was 0.866 µM; in the experiment with SF-268 CNS, 0.76 µM; in the experiment on SK-OV-3 ovarian it was 8.46 µM. The TGI came to 3.35 µM in the experiment on A549 NSCLC; 3.86 µM in the experiment on EKVX NSCLC; 1.79 µM with HOP-92 NSCLC; 3.16 µM in the experiment with KM12 colon; 3.73 µM in the experiment on MOLT-4 leukemia; 1.96 µM in the experiment on NCI-H226 lung. Moreover, the TGI with NCI-H23 lung was 5.64 µM; in the experiment with NCI-H522 lung it was 1.74 µM; in the experiment with SF-268 CNS, 1.65 µM; with SK-OV-3 ovarian it was 16.1 µM.

`Cc1cc2nc3ccc(=[N+](C)C)cc-3sc2cc1N`: the GI50 is 0.336 µM and 0.381 µM in the experiment with A549 NSCLC; 2.12 µM and 1.72 µM with EKVX NSCLC; 1.44 µM and 1.76 µM with HOP-92 NSCLC; 0.401 µM and 0.771 µM in the experiment with KM12 colon; 0.237 µM and 0.363 µM in the experiment on MOLT-4 leukemia; 2.11 µM and 1.82 µM in the experiment on NCI-H226 lung. Besides, the GI50 in the experiment with NCI-H23 lung is 0.388 µM and 0.381 µM; in the experiment with NCI-H522 lung, 0.274 µM and 1.57 µM; in the experiment on SF-268 CNS it was 0.351 µM and 0.956 µM; in the experiment on SK-OV-3 ovarian, 1.98 µM and 3.01 µM. Also, the TGI was 1.75 µM and 13.9 µM and 11.2 µM in the experiment with A549 NSCLC; 9.09 µM and 17.2 µM and 8.02 µM with EKVX NSCLC; 10.1 µM and 38.3 µM and 11.1 µM with HOP-92 NSCLC; 2.28 µM and 18.1 µM and 2.95 µM with KM12 colon; 9.05 µM and 30.9 µM and 7.69 µM in the experiment on NCI-H226 lung; 2.78 µM and 9.3 µM and 2.51 µM in the experiment on NCI-H23 lung. Besides, the TGI in the experiment on NCI-H522 lung was 1.66 µM and 8.94 µM and 10.3 µM; in the experiment with SK-OV-3 ovarian, 8.08 µM and 34.8 µM and 10.9 µM.

Take `COc1ccc2c(Cc3c4ccccc4cc4ccccc34)cncc2c1O`: the TGI in the experiment on A549 NSCLC is more than 39.8 µM; in the experiment on EKVX NSCLC, 50.1 µM; with HOP-92 NSCLC, 13.2 µM; in the experiment on KM12 colon it was 8.69 µM; in the experiment with MOLT-4 leukemia, 8.82 µM; in the experiment with NCI-H226 lung, 11.7 µM. Also, the TGI is 85.3 µM with NCI-H23 lung, 21.2 µM with NCI-H522 lung, more than 100 µM in the experiment on SF-268 CNS and more than 40.5 µM with SK-OV-3 ovarian.

On to `Cn1c(=O)c2ccc(-c3ccc(Br)cc3)nc2n(C)c1=O`, for which the TGI in the experiment on A549 NSCLC, with EKVX NSCLC, with HOP-92 NSCLC, in the experiment on KM12 colon, in the experiment with MOLT-4 leukemia and with NCI-H226 lung was more than 100 µM throughout. The TGI with NCI-H23 lung, in the experiment with NCI-H522 lung, in the experiment on SF-268 CNS and with SK-OV-3 ovarian was more than 100 µM each time.

Turning to `C/C(=N\NC(=S)N1CCN(C2CCCCCC2)CC1)c1ccccn1`, the TGI in the experiment on A549 NSCLC is 1.86 µM; with EKVX NSCLC, 2.86 µM; in the experiment with HOP-92 NSCLC, 3.05 µM; in the experiment with KM12 colon it was 3.13 µM; in the experiment on MOLT-4 leukemia, 1.52 µM and 3.72 µM; with NCI-H226 lung, 2.7 µM. The TGI with NCI-H23 lung is 5.77 µM; in the experiment with NCI-H522 lung, 0.12 µM and 0.267 µM; in the experiment on SF-268 CNS it was 5.5 µM; in the experiment with SK-OV-3 ovarian, 2.96 µM. In addition, the GI50 is 0.00788 µM with HOP-92 NSCLC; 0.0229 µM in the experiment on KM12 colon; less than 0.001 µM with MOLT-4 leukemia; 2.88 µM in the experiment with NCI-H226 lung; less than 0.001 µM in the experiment on NCI-H522 lung.
